Results published in patent US9925202B2, “Treatment of lymphangioleiomyomatosis” (THE BRIGHAM AND WOMEN'S HOSPITAL, INC., priority 2013, dated 2018).

Key:
[1] = system: LAM patient-derived TSC2-deficient 621-101 cells; assay: COX, phospho-protein and secreted prostaglandin levels in 621-101 cells (immunoblot, enzyme immunoassay); type: cell-based, human; conditions: 24 hr; for COX-1 levels / COX-2 levels / phosphorylation of MAPK or S6: 50 μM NS398 or 450 μM aspirin, immunoblot
Procedure: (§1) Cell culture and reagents. ELT-3 cells (Eker rat uterine leiomyoma-derived) (22,23) and LAM patient-derived 621-101 cells were cultured in IIA complete medium. HeLa, U2OS and OVARC5 cells were cultured in DMEM supplemented with 10% FBS. 17-beta-estradiol (10 nM), rapamycin (20 nM, Biomols), NS398 (50 μM), aspirin (450 μM Sigma), and 15-epi-LXA4 (100 nM) were used as indicated.
(§2) Immunoblotting and antibodies. Cells were lysed in m-PER buffer (PIERCE). Antibodies were used: COX-1, COX-2, phospho-MAPK (T202/Y204), phospho-S6 (S235/236), Cleaved caspase 3, cleaved PARP (CELL SIGNALING), tuberin and c-Myc (SANTA CRUZ), smooth muscle actin (BIOGENEX), and beta-actin (SIGMA).
(§3) Quantification of prostaglandin levels. PGE2, 6-keto-PGF1α and creatinine were measured using enzyme immunoassay kits (Cayman Chemical). Levels of secreted prostaglandins were normalized to protein concentrations and expressed as pg/mg protein. Urinary levels of prostaglandins were normalized to creatinine levels and expressed as […].

TSC2-deficient cells = assay: COX-2 activation and prostaglandin production in TSC2-deficient cells with Torin 1; type: cell-based; conditions: specifically to TSC2-deficient cells
[2] = system: LAM patient-derived 621-101 cells; assay: Proliferation of 621-101 cells; type: cell-based, human
Procedure: as §1

[3] = system: xenograft tumors of TSC2-deficient ELT3-luciferase-expressing cells; assay: Aspirin in xenograft tumor model of ELT3-luciferase-expressing cells; type: in vivo, mice
Procedure: Animal studies. All animal work was performed in accordance with protocols approved by the IACUC-BWH. Female intact CB17-SCID mice were used as described previously (8, 24, 25). Aspirin (100 mg/kg/day, in drinking water) treatment was initiated five weeks post-cell inoculation. Urine specimens were collected.
as §2, §3
Statistical analyses. Statistical analyses were performed using Student's t-test when comparing two groups for in vitro and in vivo studies. Two-Way ANOVO test was performed in xenograft tumor-aspirin studies. Mann Whitney tests were used for prostaglandin quantification in clinical data.
To determine whether inhibition of COX-1 and/or COX-2 impacts the growth of LAM patient-derived cells, 621-101 cells were treated with Sulindac (a COX-1 inhibitor), NS398 (a COX-2 inhibitor), or aspirin (an irreversible COX-1 and COX-2 inhibitor) for 24 hr. […] The inventors next assessed the possible benefit of aspirin in a xenograft tumor model of TSC2-deficient ELT3-luciferase-expressing cells. Aspirin treatment for two-three weeks decreased the intensity of bioluminescence (FIG. 3c), reduced the growth of xenograft tumors by 35% (FIG. 3d), and decreased the tumor size (FIG. 3e). Tumors also had reduced expression of COX-2 and c-Myc, and increased levels of cleaved-caspase-3 and cleaved-PARP (Data not shown).

[4] = system: tumors of TSC2-deficient LAM patient-derived cells; assay: Metastatic tumor model of LAM derived cells; type: in vivo, mice; conditions: aspirin treatment
Procedure: Arrows indicate individual tumors.
Bioluminescent imaging was performed weekly. Tumor area was normalized to the baseline before drug administration.
FIGS. 3f and 3g show the urinary PGE2 that was quantified from mice treated with aspirin or vehicle for 7 and 30 days. *p<0.05.

LAM patients = assay: Exhaled breath condensate and lung function in LAM patients on aspirin; type: in vivo, human
Procedure: To examine the functional effect of COX-2 in LAM lungs, 15-epi-lipoxin A4 (LXA4), a product of aspirin-acetylated COX-2, was measured in exhaled breath condensate (EBC) from three LAM subjects (data not shown). 15-epi-LXA4 was detected in EBC and the levels were increased with aspirin (data not shown).

[5] = system: A549 cells (Human lung adenocarcinoma); conditions: reference 18; cited from earlier work
[6] = aspirin 100 mg/kg/day in drinking water, two-three weeks
[7] = aspirin-treated mice, data not shown
[8] = LAM patients, aspirin treatment

## CS(=O)(=O)Nc1ccc([N+](=O)[O-])cc1OC1CCCCC1 [NS398]
[1]
  COX-1 levels: reduced
  COX-2 levels: reduced
  phosphorylation of MAPK or S6: without affecting

## CCC(=O)N1CCN(c2ccc(-n3c(=O)ccc4cnc5ccc(-c6cnc7ccccc7c6)cc5c43)cc2C(F)(F)F)CC1 [Torin 1]
TSC2-deficient cells
  COX-2 activation and prostaglandin production: suppresses

## CC(=O)Oc1ccccc1C(=O)O [aspirin]
[1]
  COX-1 levels: reduced
  COX-2 levels: reduced
  phosphorylation of MAPK or S6: without affecting
[1]; aspirin 450 μM, conditioned media, ELISA
  PGE2 levels: significantly decreased
[2]; aspirin 450 μM
  proliferation of 621-101 cells: reduced
[3]; [6]
  intensity of bioluminescence: decreased
  reduction of growth of xenograft tumors: 35%
  tumor size: decreased
[3]; aspirin-treated mice bearing ELT3 xenograft tumors, data not shown
  urinary levels of PGE2 and 6-Keto-PGF1α: markedly reduced
[3]; aspirin-treated mice compared to vehicle-treatment
  apoptosis in xenograft tumors: higher levels
[3]; [7]
  expression of COX-2 and c-Myc in tumors: reduced
  levels of cleaved-caspase-3 and cleaved-PARP in tumors: increased
[4]
  growth of tumors of LAM derived cells: decreased
  urinary prostaglandins: reduction
LAM patients; [8]
  lung function: improved
  prostaglandin levels in exhaled breath condensate: reduced
LAM patients; three LAM subjects, oral aspirin ingestion, data not shown
  15-epi-LXA4 levels in exhaled breath condensate (EBC): increased

## CCCCC[C@@H](O)/C=C/C=C\C=C\C=C\[C@@H](O)[C@@H](O)CCCC(=O)O [15-epi-LXA4, 15-epi-lipoxin A4]
[2]; 15-epi-LXA4 100 nM, data not shown
  proliferation of LAM patient-derived 621-101 cells: suppressed
[5]
  proliferation of A549 cells: decreases
